Laboratory results reported in article PMC12586182 (Frontiers in Oncology, 2025).

Tests used:
Assay in all cases: Kinase panel profiling at 1 µmol/L (mobility shift assay, Carna)
Type in all cases: biochemical
Conditions in all cases: 1 µmol/L of BTK inhibitor
EPHA6 = target: T1, EPHA6 (Homo sapiens, UniProt Q9UF33)
T1 construct: purchased Carna Biosciences
T1 sequence (Q9UF33 23-1036): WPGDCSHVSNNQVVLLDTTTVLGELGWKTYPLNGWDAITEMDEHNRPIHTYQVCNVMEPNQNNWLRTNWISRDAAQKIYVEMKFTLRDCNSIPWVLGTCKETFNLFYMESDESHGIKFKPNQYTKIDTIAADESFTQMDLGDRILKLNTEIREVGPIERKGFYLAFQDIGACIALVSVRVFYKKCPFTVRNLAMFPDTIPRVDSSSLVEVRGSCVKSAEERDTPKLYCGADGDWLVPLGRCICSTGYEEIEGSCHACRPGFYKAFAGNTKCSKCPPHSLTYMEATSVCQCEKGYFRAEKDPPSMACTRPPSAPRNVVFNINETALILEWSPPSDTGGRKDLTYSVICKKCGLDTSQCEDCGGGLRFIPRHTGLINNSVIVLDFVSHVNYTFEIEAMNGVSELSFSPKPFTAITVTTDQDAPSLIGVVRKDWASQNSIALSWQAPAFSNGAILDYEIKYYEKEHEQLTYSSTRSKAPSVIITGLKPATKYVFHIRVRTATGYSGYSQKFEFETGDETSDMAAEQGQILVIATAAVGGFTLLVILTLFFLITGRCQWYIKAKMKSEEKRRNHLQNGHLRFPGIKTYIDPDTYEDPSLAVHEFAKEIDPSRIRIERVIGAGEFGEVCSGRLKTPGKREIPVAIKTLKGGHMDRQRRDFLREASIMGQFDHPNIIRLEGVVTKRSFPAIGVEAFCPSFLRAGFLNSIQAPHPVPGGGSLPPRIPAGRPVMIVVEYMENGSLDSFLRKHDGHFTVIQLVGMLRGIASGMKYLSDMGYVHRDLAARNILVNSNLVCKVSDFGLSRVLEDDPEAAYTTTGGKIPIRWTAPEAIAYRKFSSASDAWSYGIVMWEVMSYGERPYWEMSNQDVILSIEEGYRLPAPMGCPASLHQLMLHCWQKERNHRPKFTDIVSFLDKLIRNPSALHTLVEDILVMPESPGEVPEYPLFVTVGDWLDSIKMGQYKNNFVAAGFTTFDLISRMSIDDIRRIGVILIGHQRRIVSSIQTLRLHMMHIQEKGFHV

TNIK = target: T2, TNIK (Homo sapiens, UniProt Q9UKE5)
T2 construct: purchased Carna Biosciences

PKCι = target: T3, PKCι (Homo sapiens, UniProt P41743)
T3 construct: purchased Carna Biosciences
T3 sequence (P41743 1-596): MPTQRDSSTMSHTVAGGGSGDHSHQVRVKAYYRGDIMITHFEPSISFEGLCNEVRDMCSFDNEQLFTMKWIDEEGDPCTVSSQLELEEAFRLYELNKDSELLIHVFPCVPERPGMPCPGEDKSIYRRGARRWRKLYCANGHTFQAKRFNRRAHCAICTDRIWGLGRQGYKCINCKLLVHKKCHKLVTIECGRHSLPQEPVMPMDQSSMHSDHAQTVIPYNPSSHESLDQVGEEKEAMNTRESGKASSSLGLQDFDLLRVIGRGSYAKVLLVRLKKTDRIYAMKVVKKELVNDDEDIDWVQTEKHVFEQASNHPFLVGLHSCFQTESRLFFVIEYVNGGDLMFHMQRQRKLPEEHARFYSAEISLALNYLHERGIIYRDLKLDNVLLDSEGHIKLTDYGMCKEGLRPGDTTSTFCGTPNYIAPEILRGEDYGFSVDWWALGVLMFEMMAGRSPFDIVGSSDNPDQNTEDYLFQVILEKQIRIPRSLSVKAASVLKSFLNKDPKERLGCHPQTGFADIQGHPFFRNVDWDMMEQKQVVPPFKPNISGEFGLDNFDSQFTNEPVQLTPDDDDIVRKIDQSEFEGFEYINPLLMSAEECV

CK1α = target: T4, CK1α (Homo sapiens, UniProt P48729)
T4 construct: purchased Carna Biosciences

JNK2 = target: T5, JNK2 (Homo sapiens, UniProt P45984)
T5 construct: purchased Carna Biosciences

EPHA8 = target: T6, EPHA8 (Homo sapiens, UniProt P29322)
T6 construct: purchased Carna Biosciences
T6 sequence (P29322 28-1005): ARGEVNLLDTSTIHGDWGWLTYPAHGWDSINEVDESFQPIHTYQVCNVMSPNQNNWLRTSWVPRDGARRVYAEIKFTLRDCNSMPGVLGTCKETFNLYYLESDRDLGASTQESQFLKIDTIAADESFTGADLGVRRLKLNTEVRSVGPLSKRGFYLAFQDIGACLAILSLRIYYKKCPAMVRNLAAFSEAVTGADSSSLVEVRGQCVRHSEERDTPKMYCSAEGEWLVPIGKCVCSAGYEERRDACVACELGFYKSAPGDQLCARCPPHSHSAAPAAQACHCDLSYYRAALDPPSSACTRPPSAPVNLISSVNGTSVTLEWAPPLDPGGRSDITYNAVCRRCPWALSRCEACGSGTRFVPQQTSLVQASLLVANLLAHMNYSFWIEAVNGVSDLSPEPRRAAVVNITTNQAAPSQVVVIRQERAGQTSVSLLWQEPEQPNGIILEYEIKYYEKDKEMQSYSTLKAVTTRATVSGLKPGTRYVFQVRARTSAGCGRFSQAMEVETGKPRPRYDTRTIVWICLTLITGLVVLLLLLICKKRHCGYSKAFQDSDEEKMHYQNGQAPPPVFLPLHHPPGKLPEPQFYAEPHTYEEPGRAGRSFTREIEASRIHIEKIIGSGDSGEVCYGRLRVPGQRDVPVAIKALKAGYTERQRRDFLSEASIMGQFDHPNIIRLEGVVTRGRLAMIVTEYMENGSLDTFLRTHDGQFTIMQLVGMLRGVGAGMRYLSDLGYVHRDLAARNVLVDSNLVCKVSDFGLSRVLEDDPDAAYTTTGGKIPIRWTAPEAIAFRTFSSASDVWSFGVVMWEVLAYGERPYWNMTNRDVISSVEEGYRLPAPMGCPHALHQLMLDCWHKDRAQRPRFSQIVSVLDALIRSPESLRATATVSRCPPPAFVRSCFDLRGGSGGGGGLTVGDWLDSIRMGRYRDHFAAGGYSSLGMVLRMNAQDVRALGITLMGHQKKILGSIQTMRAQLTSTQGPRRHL

T4 sequence (P48729 whole entry): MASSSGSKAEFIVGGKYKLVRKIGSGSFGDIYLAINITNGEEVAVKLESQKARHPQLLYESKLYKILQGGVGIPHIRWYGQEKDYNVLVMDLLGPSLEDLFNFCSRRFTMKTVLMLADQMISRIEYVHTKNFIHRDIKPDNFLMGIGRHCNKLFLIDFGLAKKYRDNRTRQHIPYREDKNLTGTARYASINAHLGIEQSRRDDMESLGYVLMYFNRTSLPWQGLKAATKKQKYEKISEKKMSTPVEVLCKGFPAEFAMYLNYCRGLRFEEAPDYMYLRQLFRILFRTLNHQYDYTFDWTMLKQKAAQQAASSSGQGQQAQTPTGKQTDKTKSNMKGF
T5 sequence (P45984 whole entry): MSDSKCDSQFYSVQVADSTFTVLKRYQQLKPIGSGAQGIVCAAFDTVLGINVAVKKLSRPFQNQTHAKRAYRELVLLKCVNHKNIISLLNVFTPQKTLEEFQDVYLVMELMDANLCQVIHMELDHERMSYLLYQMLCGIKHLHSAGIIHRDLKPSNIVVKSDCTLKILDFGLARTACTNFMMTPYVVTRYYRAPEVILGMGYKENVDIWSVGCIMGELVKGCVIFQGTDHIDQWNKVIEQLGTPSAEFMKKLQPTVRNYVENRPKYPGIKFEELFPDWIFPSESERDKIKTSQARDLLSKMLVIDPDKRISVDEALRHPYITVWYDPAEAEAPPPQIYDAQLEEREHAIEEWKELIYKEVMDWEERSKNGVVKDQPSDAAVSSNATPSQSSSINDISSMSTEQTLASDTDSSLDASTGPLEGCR
T2 sequence (Q9UKE5 whole entry): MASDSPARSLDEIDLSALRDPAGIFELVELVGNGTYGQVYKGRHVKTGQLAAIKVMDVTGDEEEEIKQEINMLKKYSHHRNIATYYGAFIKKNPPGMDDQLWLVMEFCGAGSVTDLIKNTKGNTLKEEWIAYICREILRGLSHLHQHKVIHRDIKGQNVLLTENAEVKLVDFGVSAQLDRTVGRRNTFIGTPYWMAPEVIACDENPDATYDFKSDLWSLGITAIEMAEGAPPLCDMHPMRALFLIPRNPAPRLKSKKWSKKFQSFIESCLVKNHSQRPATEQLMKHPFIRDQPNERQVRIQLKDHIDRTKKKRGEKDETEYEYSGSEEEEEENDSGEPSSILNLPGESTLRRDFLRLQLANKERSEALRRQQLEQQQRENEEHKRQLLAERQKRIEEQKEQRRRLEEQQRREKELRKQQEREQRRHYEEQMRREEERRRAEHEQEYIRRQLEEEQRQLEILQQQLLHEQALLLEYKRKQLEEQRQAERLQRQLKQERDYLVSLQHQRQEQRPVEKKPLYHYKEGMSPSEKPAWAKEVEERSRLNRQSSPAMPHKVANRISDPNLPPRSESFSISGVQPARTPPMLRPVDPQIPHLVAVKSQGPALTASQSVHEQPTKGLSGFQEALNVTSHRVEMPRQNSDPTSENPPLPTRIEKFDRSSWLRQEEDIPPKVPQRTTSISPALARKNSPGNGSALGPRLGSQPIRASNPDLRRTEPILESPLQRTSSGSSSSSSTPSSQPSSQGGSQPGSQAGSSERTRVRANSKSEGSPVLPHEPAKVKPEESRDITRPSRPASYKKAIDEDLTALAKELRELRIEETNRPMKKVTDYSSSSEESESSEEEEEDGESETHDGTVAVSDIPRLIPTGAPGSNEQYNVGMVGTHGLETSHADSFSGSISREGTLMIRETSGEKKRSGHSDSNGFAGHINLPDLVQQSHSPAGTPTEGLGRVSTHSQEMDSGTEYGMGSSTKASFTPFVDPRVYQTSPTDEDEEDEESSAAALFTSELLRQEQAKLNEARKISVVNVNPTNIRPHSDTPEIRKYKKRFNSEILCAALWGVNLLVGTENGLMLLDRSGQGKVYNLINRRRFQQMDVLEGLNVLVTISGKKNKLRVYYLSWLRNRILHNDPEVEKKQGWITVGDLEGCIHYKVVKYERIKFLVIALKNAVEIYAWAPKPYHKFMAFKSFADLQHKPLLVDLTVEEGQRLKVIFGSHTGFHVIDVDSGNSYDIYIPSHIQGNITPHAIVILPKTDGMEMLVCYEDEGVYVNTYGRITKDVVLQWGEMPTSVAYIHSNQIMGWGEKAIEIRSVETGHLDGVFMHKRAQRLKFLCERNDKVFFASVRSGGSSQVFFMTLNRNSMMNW

| SMILES | Percentage inhibition of kinase enzyme activity (EPHA6) [%] | Percentage inhibition of kinase enzyme activity (TNIK) [%] | Percentage inhibition of kinase enzyme activity (PKCι) [%] | Percentage inhibition of kinase enzyme activity (CK1α) [%] | Percentage inhibition of kinase enzyme activity (JNK2) [%] | Percentage inhibition of kinase enzyme activity (EPHA8) [%] |
| --- | --- | --- | --- | --- | --- | --- |
| CC#CC(=O)N1CCC[C@H]1c1nc(-c2ccc(C(=O)Nc3ccccn3)cc2)c2c(N)nccn12 [acalabrutinib] | -2.37 | -0.81 | -8.38 | 10.47 | -1.85 | 6.51 |
| C=CC(=O)N1CCC[C@@H](n2nc(-c3ccc(Oc4ccccc4)cc3)c3c(N)ncnc32)C1 [ibrutinib] | 92.64 | -1.62 | 2.23 | -1.93 | -2.83 | 54.68 |
| O=C(c1ccc(Oc2ccccc2)cc1Cl)c1c[nH]c2ncnc(N[C@@H]3CC[C@@H](CO)OC3)c12 [nemtabrutinib] | 49.03 | 85.96 | -1.29 | 33.46 | 4.23 | 50.84 |
| COc1ccc(F)cc1C(=O)NCc1ccc(-c2nn([C@@H](C)C(F)(F)F)c(N)c2C(N)=O)cc1 [pirtobrutinib] | 6.36 | -3.38 | 0.51 | 9.63 | 7.41 | -19.48 |
| C=CC(=O)N1CCC([C@@H]2CCNc3c(C(N)=O)c(-c4ccc(Oc5ccccc5)cc4)nn32)CC1 [zanubrutinib] | 0.76 |  |  |  |  | -2.10 |
